# According to patent US4959368A, “Therapeutic agent for neurological diseases” (Mitsui Petrochemical Industries Ltd., priority 1986, dated 1990):
# Legend:
# [1] = tested on: mouse neuroblastoma cell line neuro-2a; experiment: Activity on neuro-2a, cells with outgrown neurites; assay type: cell-based
# Method in brief: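 Mouse neuro-2a cells in DMEM with FCS exposed to compounds for 24 h (up to 6 concentrations, triplicate runs), glutaraldehyde-fixed and methylene blue-stained. Proportion of cells bearing a neurite at least twice the cell's long diameter counted microscopically over ≥200 cells.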
# Acute toxicity, mouse = assay type: in vivo; conditions: in vivo, po, Table 6, p.o., read-out: Presumed LD50
# Protocol: (§1) The acute toxicity of the compounds of the invention was examined by the following method.
# (§2) Male ddy-strain 5-week old mice and male Wistar-strain 8 week old rats, five per group, were used as experimental animals. Each of the compounds was dissolved in saline and administered perorally, and the toxicity of the compound was assessed 24 hours after the administration.
# mice = experiment: Acute toxicity, mouse; assay type: in vivo; conditions: 24 hours
# Protocol: as §1, §2
# [2] = tested on: human neuroblastoma cell line GOTO; experiment: Activity on neuroblastoma cell line GOTO (cell number, number and length of neurites); assay type: cell-based; conditions: for Number of cells: control 3.17
# Protocol: The biological activities in vitro of the compounds of formula (I) on cells of the nervous system were tested. The cells tested were human neuroblastoma cell line GOTO [see Sekiguchi, M., Oota, T., Sakakibara, K., Inui, N. & Fujii, G., Japan. J. Exp. Med., 49, 67-83 (1979)], and neuroblastoma cell line NB-1 [see Miyake, S., Shimo, Y., Kitamura, T., Nojyo, Y., Nakamura, T., Imkashuku, S. and Abe, T., The Autonomic Nervous System, 10, 115-120 (1973)], and mouse neuroblastoma cell line neuro-2a (Dainippon Pharmaceutical Co., Ltd.) which have been established as the cells of the nervous system. The above neuve cells were grown in an incubator at 37° C. in the presence of 5% carbon dioxide gas exponentially, and then cultivated for a certain period of time together with the compounds of formula (I).
# The effect of the compounds of this invention on neuroblastoma cells was examined by the following method.
# A culture medium [composed of 45% of RPMI 1640 medium, 45% modified Eagle's medium (MEM) and 10% of fetal calf serum (FCS) and containing penicillin G sodium (100 units/ml) and streptomycin sulfate (100 microgram/ml)] containing neurobalstoma cell line GOTO in the logarithmic growth period was poured in an amount of 2 ml each into polystyrene dishes (35 mm; made by Corning Co.) so that the cell concentration was 2 to 6×10^4 cells per dish, and the cells were cultured for 1 to 2 days in a carbon dioxide gas incubator containing 5% of carbon dioxide gas in air at 37° C. Then, the culture fluid was removed, and 2 ml of a fresh serum-free culture fluid (consisting of 50% of RPMI medium and 50% of MEM medium and containing penicillin G sodium and streptomycin sulfate in the same amounts as above) was added. At the same time, a presterilized PBS solution (phosphate buffered saline) of each of the test compounds in various concentrations was added to each of the dishes. After culturing for 24 hours, the number of living cells was counted. Furthermore, the culture was photographed, and from the photos, the number and length of neurites per cell were measured. The numer of living cells was counted for 3 to 6 dishes by resistance to staining with erythrosine dye. The number and length of the neurites were measured with regard to 6 photos (more than 200 cells per photo).
structure (smiles),measurement,setting,value
c1cnc(N2CCNCC2)nc1 [Compound 124],Cells having neurites with a length at least twice the long diameter of cell/total number of cells,"[1]; Table 3 Run No. 1, 3.6 μM, control 2.2 ± 0.8",4.6 ± 0.5%
same,Cells having neurites with a length at least twice the long diameter of cell/total number of cells,"[1]; Table 3 Run No. 1, 36 μM, control 2.2 ± 0.8",3.8 ± 1.2%
same,LD50 at 24 h,"Acute toxicity, mouse",550 to 1000 mg/kg
same,Number of dead animals/number of test animals,"mice; Table 6, 300 mg/kg p.o.",0/5
same,Number of dead animals/number of test animals,"mice; Table 6, 500 mg/kg p.o.",0/5
same,Number of dead animals/number of test animals,"mice; Table 6, 1000 mg/kg p.o.",3/5
same,Number of cells,"[2]; Table 1 Run No. 3, 0.0 μg/ml (so in the source)",4.01 × 10^4 /dish
same,Number of neurites/cell (mean ± S.D.),"[2]; Table 1 Run No. 3, 1 μg/ml, control 1.94 ± 0.69, all *P <0.01",2.23 ± 0.82 neurites/cell
same,Number of cells,"[2]; Table 1 Run No. 3, 1 μg/ml",4.10 × 10^4 /dish
same,Length of neurites (mean ± S.D.),"[2]; Table 1 Run No. 3, 1 μg/ml, control 45.13 ± 22.71, all *P <0.01",66.56 ± 22.16 μm/cell
same,Number of neurites/cell (mean ± S.D.),"[2]; Table 1 Run No. 4, 1 μg/ml, control 1.98 ± 0.74",2.13 ± 0.72 neurites/cell
same,Number of cells (mean ± S.E.),"[2]; Table 1 Run No. 4, 1 μg/ml, control 5.48 ± 1.38",7.22 ± 1.98 × 10^4 /dish
same,Length of neurites (mean ± S.D.),"[2]; Table 1 Run No. 4, 1 μg/ml, control 54.15 ± 33.64",72.19 ± 49.23 μm/cell
same,Number of neurites/cell (mean ± S.D.),"[2]; Table 1 Run No. 4, 10 μg/ml, control 1.98 ± 0.74",2.08 ± 0.69 neurites/cell
same,Number of cells (mean ± S.E.),"[2]; Table 1 Run No. 4, 10 μg/ml, control 5.48 ± 1.38",5.45 ± 2.61 × 10^4 /dish
same,Length of neurites (mean ± S.D.),"[2]; Table 1 Run No. 4, 10 μg/ml, control 54.15 ± 33.64",71.31 ± 45.67 μm/cell
same,Number of neurites/cell (mean ± S.D.),"[2]; Table 1 Run No. 5, 1 μg/ml, control 1.96 ± 0.64",1.96 ± 0.54 neurites/cell
same,Number of cells (mean ± S.E.),"[2]; Table 1 Run No. 5, 1 μg/ml, control 5.30 ± 0.23",4.89 ± 0.59 × 10^4 /dish
same,Length of neurites (mean ± S.D.),"[2]; Table 1 Run No. 5, 1 μg/ml, control 46.41 ± 33.28",52.59 ± 32.50 μm/cell
O=c1[nH]ccc2nc(N3CCNCC3)ncc12 [Compound 701],Cells having neurites with a length at least twice the long diameter of cell/total number of cells,"[1]; Table 3 Run No. 7, 0.03 mM, control 2.5 ± 0.7",6.8 ± 0.8%
same,Cells having neurites with a length at least twice the long diameter of cell/total number of cells,"[1]; Table 3 Run No. 7, 0.5 mM, control 2.5 ± 0.7",42.5 ± 1.8%
same,Cells having neurites with a length at least twice the long diameter of cell/total number of cells,"[1]; Table 3 Run No. 7, 1 mM, control 2.5 ± 0.7",57.2 ± 1.2%
same,Cells having neurites with a length at least twice the long diameter of cell/total number of cells,"[1]; Table 3 second Run No. 5, 0.1 mM, control 4.5 ± 0.3",16.2 ± 1.2%
same,LD50 at 24 h,"Acute toxicity, mouse",300 to 550 mg/kg
same,Number of dead animals/number of test animals,"mice; Table 6, 300 mg/kg p.o.",0/5
same,Number of dead animals/number of test animals,"mice; Table 6, 500 mg/kg p.o.",3/5
same,Number of dead animals/number of test animals,"mice; Table 6, 1000 mg/kg p.o.",5/5
